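Cultured in 96-well plates, cells were exposed to test compound for 48 hours across five concentrations. At the TGI there is no net growth.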
Experiments:
Assay in all cases: NCI tumour cell line growth inhibition, 48 h
786-0 renal = test system: 786-0 renal
A498 renal = test system: A498 renal
A549 NSCLC = test system: A549 NSCLC
ACHN renal = test system: ACHN renal
BT-549 breast = test system: BT-549 breast
CAKI-1 renal = test system: CAKI-1 renal
CCRF-CEM leukemia = test system: CCRF-CEM leukemia
COLO 205 colon = test system: COLO 205 colon
DLD-1 colon = test system: DLD-1 colon
DMS 114 small cell lung = test system: DMS 114 small cell lung
DMS 273 small cell lung = test system: DMS 273 small cell lung
DU-145 prostate = test system: DU-145 prostate
EKVX NSCLC = test system: EKVX NSCLC
HCC-2998 colon = test system: HCC-2998 colon
HCT-116 colon = test system: HCT-116 colon
HCT-15 colon = test system: HCT-15 colon
HL-60(TB) leukemia = test system: HL-60(TB) leukemia
HOP-18 NSCLC = test system: HOP-18 NSCLC
HOP-62 NSCLC = test system: HOP-62 NSCLC
HOP-92 NSCLC = test system: HOP-92 NSCLC
HS 578T breast = test system: HS 578T breast
HT29 colon = test system: HT29 colon
IGROV1 ovarian = test system: IGROV1 ovarian
K-562 leukemia = test system: K-562 leukemia
KM12 colon = test system: KM12 colon
KM20L2 colon = test system: KM20L2 colon
LOX IMVI melanoma = test system: LOX IMVI melanoma
LXFL 529 NSCLC = test system: LXFL 529 NSCLC
M14 melanoma = test system: M14 melanoma
M19-MEL melanoma = test system: M19-MEL melanoma
MALME-3M melanoma = test system: MALME-3M melanoma
MCF7 breast = test system: MCF7 breast
MDA-MB-231 breast = test system: MDA-MB-231 breast
MDA-MB-435 = test system: MDA-MB-435
MDA-N = test system: MDA-N
MOLT-4 leukemia = test system: MOLT-4 leukemia
NCI-H226 lung = test system: NCI-H226 lung
NCI-H23 lung = test system: NCI-H23 lung
NCI-H460 lung = test system: NCI-H460 lung
NCI-H522 lung = test system: NCI-H522 lung
OVCAR-3 ovarian = test system: OVCAR-3 ovarian
OVCAR-4 ovarian = test system: OVCAR-4 ovarian
OVCAR-5 ovarian = test system: OVCAR-5 ovarian
OVCAR-8 ovarian = test system: OVCAR-8 ovarian
PC-3 prostate = test system: PC-3 prostate
RPMI-8226 leukemia = test system: RPMI-8226 leukemia
RXF 393 renal = test system: RXF 393 renal
RXF-631 renal = test system: RXF-631 renal
SF-268 CNS = test system: SF-268 CNS
SF-295 CNS = test system: SF-295 CNS
SF-539 CNS = test system: SF-539 CNS
SK-MEL-2 melanoma = test system: SK-MEL-2 melanoma
SK-MEL-28 melanoma = test system: SK-MEL-28 melanoma
SK-MEL-5 melanoma = test system: SK-MEL-5 melanoma
SK-OV-3 ovarian = test system: SK-OV-3 ovarian
SN12C renal = test system: SN12C renal
SNB-19 CNS = test system: SNB-19 CNS
SNB-75 CNS = test system: SNB-75 CNS
SNB-78 CNS = test system: SNB-78 CNS
SR leukemia = test system: SR leukemia
SW-620 colon = test system: SW-620 colon
T-47D breast = test system: T-47D breast
TK-10 renal = test system: TK-10 renal
U251 CNS = test system: U251 CNS
UACC-257 melanoma = test system: UACC-257 melanoma
UACC-62 melanoma = test system: UACC-62 melanoma
UO-31 renal = test system: UO-31 renal
XF 498 CNS = test system: XF 498 CNS

CCc1cccc(CC)c1NC(=O)C(C#N)C1=C(Cl)C(=O)c2ccccc2C1=O (stereo not drawn)
TGI (786-0 renal): 31 µM | TGI (A498 renal): 36.5 µM | TGI (A549 NSCLC): 40.9 µM | TGI (ACHN renal): 30.5 µM | TGI (BT-549 breast): 24.8 µM | TGI (CAKI-1 renal): 24.7 µM | TGI (CCRF-CEM leukemia): 15.6 µM | TGI (COLO 205 colon): 49.1 µM | TGI (DLD-1 colon): 45.2 µM | TGI (DMS 114 small cell lung): 65.4 µM | TGI (DMS 273 small cell lung): 45.3 µM | TGI (DU-145 prostate): 30.5 µM | TGI (EKVX NSCLC): 36 µM | TGI (HCC-2998 colon): 31.2 µM | TGI (HCT-116 colon): 34 µM | TGI (HCT-15 colon): 42.9 µM | TGI (HL-60(TB) leukemia): 5.28 µM | TGI (HOP-18 NSCLC): 28.9 µM | TGI (HOP-62 NSCLC): 21.4 µM | TGI (HOP-92 NSCLC): 8.89 µM | TGI (HS 578T breast): 9.32 µM | TGI (HT29 colon): 39.7 µM | TGI (IGROV1 ovarian): 32 µM | TGI (K-562 leukemia): 14.1 µM | TGI (KM12 colon): 35.5 µM | TGI (KM20L2 colon): 43.8 µM | TGI (LOX IMVI melanoma): 45.1 µM | TGI (LXFL 529 NSCLC): 30.1 µM | TGI (M14 melanoma): 35.1 µM | TGI (M19-MEL melanoma): 47.2 µM | TGI (MALME-3M melanoma): 21 µM | TGI (MCF7 breast): 34.5 µM | TGI (MDA-MB-231 breast): 21.6 µM | TGI (MDA-MB-435): 27.9 µM | TGI (MDA-N): 30.3 µM | TGI (MOLT-4 leukemia): 20.3 µM | TGI (NCI-H226 lung): 29.8 µM | TGI (NCI-H23 lung): 24.3 µM | TGI (NCI-H460 lung): 52 µM | TGI (NCI-H522 lung): 23 µM | TGI (OVCAR-3 ovarian): 36.9 µM | TGI (OVCAR-4 ovarian): 31.6 µM | TGI (OVCAR-5 ovarian): 34.5 µM | TGI (OVCAR-8 ovarian): 57.1 µM | TGI (PC-3 prostate): 25.9 µM | TGI (RPMI-8226 leukemia): 23.4 µM | TGI (RXF 393 renal): 29.8 µM | TGI (RXF-631 renal): > 56.8 µM | TGI (SF-268 CNS): 36 µM | TGI (SF-295 CNS): 29.9 µM | TGI (SF-539 CNS): 25.6 µM | TGI (SK-MEL-2 melanoma): 34.7 µM | TGI (SK-MEL-28 melanoma): 41 µM | TGI (SK-MEL-5 melanoma): 28.2 µM | TGI (SK-OV-3 ovarian): 42.4 µM | TGI (SN12C renal): 31.3 µM | TGI (SNB-19 CNS): 44.4 µM | TGI (SNB-75 CNS): 17.4 µM | TGI (SNB-78 CNS): 40.8 µM | TGI (SR leukemia): > 28.9 µM | TGI (SW-620 colon): 31.2 µM | TGI (T-47D breast): 18.1 µM | TGI (TK-10 renal): 35.9 µM | TGI (U251 CNS): 33.7 µM | TGI (UACC-257 melanoma): 32.2 µM | TGI (UACC-62 melanoma): 31.7 µM | TGI (UO-31 renal): 24.3 µM | TGI (XF 498 CNS): 29.4 µM
